The results in this text go back to PubChem BioAssay (NCI).

Test systems include TK-10 renal; IGROV1 ovarian; T-47D breast; HL-60(TB) leukemia; SK-MEL-2 melanoma; CCRF-CEM leukemia; UACC-257 melanoma; HOP-92 NSCLC; UACC-62 melanoma; HCC-2998 colon.
Common to all, as to experiment: NCI-60 cell line screen, 48 h

Values joined by “and” are separate entries in the source; they are usually repeats but may differ in a detail not shown here. Identical values can stand only once.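 Values below derive from 48-hour exposures of cells grown in 96-well plates, with endpoints linearly interpolated between the two concentrations bracketing the appropriate inhibition level. The concentration for 50% growth inhibition is given as GI50. TGI marks complete inhibition of growth.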

As to `COP(=O)(OC)[C@@](O)(c1ccccc1)[C@@H](O)[C@H](O)c1ccccc1`, the TGI in the test with TK-10 renal was > 100 µM; with IGROV1 ovarian it was > 100 µM; in the test on T-47D breast, > 100 µM; with HL-60(TB) leukemia, > 100 µM; in the test with SK-MEL-2 melanoma, > 100 µM; with CCRF-CEM leukemia, 41.6 µM. The TGI in the test with UACC-257 melanoma, in the test on HOP-92 NSCLC and with UACC-62 melanoma was > 100 µM throughout.
With `C#CCOC(=O)C=[N+]=[N-]`, the TGI in the test with IGROV1 ovarian, in the test on T-47D breast, in the test with HL-60(TB) leukemia, with SK-MEL-2 melanoma, in the test with CCRF-CEM leukemia and with UACC-257 melanoma was > 10 µM in each case. Besides, the TGI in the test on HOP-92 NSCLC and in the test on UACC-62 melanoma was > 10 µM each time.
Turning to `Cc1ccc(N=NC(=Nc2ccc(F)cc2)c2ccc(N(CCC#N)CCC#N)cc2)cc1`, the TGI in the test with TK-10 renal, with IGROV1 ovarian, in the test on HCC-2998 colon, in the test with T-47D breast, with SK-MEL-2 melanoma and with CCRF-CEM leukemia was > 100 µM throughout. Moreover, the figures for the TGI with UACC-257 melanoma, in the test on HOP-92 NSCLC and with UACC-62 melanoma were 91.3 µM, > 100 µM and > 100 µM, respectively.
For the compound `CCOC(=O)c1nc2ccccc2nc1Nc1cc(OC)c(OC)c(OC)c1`, the TGI in the test on IGROV1 ovarian, in the test on HCC-2998 colon, in the test with T-47D breast, in the test with HL-60(TB) leukemia, with SK-MEL-2 melanoma and in the test with CCRF-CEM leukemia was > 100 µM each time. For the same compound, the TGI in the test with HOP-92 NSCLC and in the test with UACC-62 melanoma was > 100 µM throughout.
Turning to `C/C(=N/NC(=S)N1CCCCCC1)c1cccc(/C(C)=N\NC(=S)N2CCCCCC2)n1`, the TGI in the test with TK-10 renal was determined as 3.29 µM; with IGROV1 ovarian it was 2.86 µM; in the test on HCC-2998 colon, 6.38 µM; in the test on T-47D breast, 5.95 µM; in the test on HL-60(TB) leukemia it was 5.26 µM; in the test with SK-MEL-2 melanoma it was 3.81 µM. Moreover, the TGI in the test on UACC-257 melanoma stood at 3.45 µM; in the test with HOP-92 NSCLC it was 3.58 µM; in the test on UACC-62 melanoma, 5.27 µM.
In the case of `Cc1cc2c(cc1Cl)SSc1cc(Cl)c(C)cc1S(=O)(=O)Nc1nc(N)nn1C(O)n1nc(N)nc1NS2(=O)=O`, the TGI with TK-10 renal, in the test on IGROV1 ovarian, in the test on HCC-2998 colon, with T-47D breast, in the test with HL-60(TB) leukemia and with SK-MEL-2 melanoma was > 10 µM each time. For the same compound, the TGI with CCRF-CEM leukemia, in the test on UACC-257 melanoma and in the test with HOP-92 NSCLC was > 10 µM in each case.
`COC(=O)/C(=C(/C)c1ccco1)P(=O)(OC)OC`: the TGI in the test on TK-10 renal, in the test on IGROV1 ovarian, with HCC-2998 colon, with T-47D breast, in the test on SK-MEL-2 melanoma and with CCRF-CEM leukemia was > 100 µM each time. Moreover, the TGI with UACC-257 melanoma, in the test on HOP-92 NSCLC and in the test on UACC-62 melanoma was > 100 µM each time.
Regarding `CCOC(=O)CCCN`, the TGI in the test on TK-10 renal, with IGROV1 ovarian, in the test on HCC-2998 colon, in the test with T-47D breast, in the test with HL-60(TB) leukemia and with SK-MEL-2 melanoma was > 100 µM each time. Also, the TGI in the test on CCRF-CEM leukemia, in the test on UACC-257 melanoma and in the test on HOP-92 NSCLC was > 100 µM in each case.
Consider `CCOC(=O)c1ccc(-c2onc(C)c2Br)[nH]1`, for which the TGI in the test on TK-10 renal, with IGROV1 ovarian, with HCC-2998 colon, with T-47D breast, in the test on SK-MEL-2 melanoma and with UACC-257 melanoma was > 100 µM each time. For the same compound, the TGI with HOP-92 NSCLC is 92 µM; in the test on UACC-62 melanoma, > 100 µM.
Regarding `O=C(O)CSC1=NCCN1`, the TGI in the test with TK-10 renal, with IGROV1 ovarian, with T-47D breast, in the test on SK-MEL-2 melanoma, with CCRF-CEM leukemia and with HOP-92 NSCLC was > 100 µM throughout. For the same compound, the TGI with UACC-62 melanoma was > 100 µM.
Turning to `c1ccc(C/C(=N\Nc2nc3ccccc3[nH]2)c2ccccn2)cc1`, the TGI is 1.83 µM in the test on TK-10 renal; 0.327 µM in the test on IGROV1 ovarian; 30.9 µM in the test on HCC-2998 colon; 15.6 µM with T-47D breast; 15.3 µM in the test with SK-MEL-2 melanoma; 0.375 µM in the test with CCRF-CEM leukemia. Besides, the results for the TGI with UACC-257 melanoma, with HOP-92 NSCLC and in the test with UACC-62 melanoma were 1.54 µM, 0.653 µM and 2.79 µM, respectively.
In the case of `Nc1nc(N)c2cc(-c3cc4ccccc4[nH]3)ccc2n1`, the TGI was 37.2 µM in the test with TK-10 renal; 33.4 µM in the test on IGROV1 ovarian; 21.7 µM in the test on T-47D breast; 47.7 µM in the test with HL-60(TB) leukemia; 36.4 µM in the test on SK-MEL-2 melanoma; > 100 µM in the test with CCRF-CEM leukemia. In addition, the TGI came to 35.1 µM in the test with UACC-257 melanoma, 35.2 µM with HOP-92 NSCLC and 33.9 µM in the test on UACC-62 melanoma.
Take `CC(C)(C)OC(=O)C1C(=O)NC(=O)CC1C(OCc1ccccc1)C(OCc1ccccc1)C(COCc1ccccc1)OCc1ccccc1` (stereo unspecified): the TGI is > 100 µM with TK-10 renal; > 100 µM in the test with IGROV1 ovarian; > 100 µM with HCC-2998 colon; 14.6 µM in the test on T-47D breast; > 100 µM and 49.5 µM in the test on HL-60(TB) leukemia; > 100 µM in the test on CCRF-CEM leukemia. The TGI in the test with UACC-257 melanoma and in the test on HOP-92 NSCLC was > 100 µM throughout. In addition, the GI50 in the test on HL-60(TB) leukemia is 61.7 µM and 12.8 µM; with CCRF-CEM leukemia, > 100 µM and 49.1 µM; in the test on HOP-92 NSCLC, > 100 µM and 13.3 µM.
For `O=C1C(NS(=O)(=O)c2ccccc2)=C(n2ccnc2)C(=O)c2ccccc21`, the TGI in the test with TK-10 renal, in the test on IGROV1 ovarian, with T-47D breast, in the test on HL-60(TB) leukemia, in the test on SK-MEL-2 melanoma and with CCRF-CEM leukemia was > 100 µM in each case. The TGI in the test with UACC-257 melanoma, with HOP-92 NSCLC and in the test with UACC-62 melanoma was > 100 µM throughout.
As for `COc1nc2ncc([C@@H](OC(C)=O)[C@@H](COC(C)=O)OC(C)=O)nc2c(=O)n1C`, the TGI in the test on TK-10 renal is > 100 µM; with IGROV1 ovarian it was > 100 µM; in the test on T-47D breast it was > 100 µM; in the test with HL-60(TB) leukemia, 87.8 µM; in the test on SK-MEL-2 melanoma, > 100 µM; in the test on CCRF-CEM leukemia it was > 100 µM. For the same compound, the TGI with UACC-257 melanoma, in the test on HOP-92 NSCLC and in the test on UACC-62 melanoma was > 100 µM throughout.
For the compound `COc1ccccc1C1C(C#N)=C(N)SC(N)=C1C#N`, the GI50 with TK-10 renal was > 100 µM; in the test on IGROV1 ovarian, 11.1 µM; in the test with HCC-2998 colon, > 100 µM; in the test on T-47D breast it was 35.5 µM; in the test with HL-60(TB) leukemia, 50.3 µM; in the test on SK-MEL-2 melanoma it was > 100 µM. In addition, the figures for the GI50 with CCRF-CEM leukemia, in the test with UACC-257 melanoma and with HOP-92 NSCLC were 26.6 µM, > 100 µM and 47.1 µM, respectively. Also, the TGI in the test with TK-10 renal was > 100 µM; with IGROV1 ovarian, 70 µM; with HCC-2998 colon it was > 100 µM; with T-47D breast, > 100 µM; in the test with HL-60(TB) leukemia, > 100 µM; in the test on SK-MEL-2 melanoma it was > 100 µM. Besides, the TGI in the test on CCRF-CEM leukemia was 70.4 µM; with UACC-257 melanoma, > 100 µM; in the test with HOP-92 NSCLC, > 100 µM.
With `Cc1ccc(S(=O)(=O)N(CC(O)COc2ccccc2)c2c(F)c(F)c(F)c(F)c2F)cc1` (stereo unspecified), the TGI with TK-10 renal was 71.1 µM; in the test with HCC-2998 colon, 34.5 µM; in the test with T-47D breast, 52.4 µM; in the test on HL-60(TB) leukemia, 42.2 µM; in the test on SK-MEL-2 melanoma it was 30 µM; with HOP-92 NSCLC, 21.7 µM. In the test with UACC-62 melanoma, this compound displayed a TGI of 33.5 µM.
Regarding `CC(Nc1cccc(Cl)c1)c1ccncc1` (stereo unspecified), the TGI in the test on TK-10 renal, in the test on IGROV1 ovarian, in the test on T-47D breast, with SK-MEL-2 melanoma, with CCRF-CEM leukemia and in the test with UACC-257 melanoma was > 100 µM throughout. For the same compound, in the test on HOP-92 NSCLC, the TGI is > 100 µM.
Take `C[C@]12CC[C@H]3[C@@H](CC=C4C[C@@H](N5CCCC5)CC[C@@]43C)[C@@H]1C/C(=C\c1ccc([N+](=O)[O-])cc1)[C@@H]2O`: the TGI with TK-10 renal was 35.8 µM; with IGROV1 ovarian it was 28.2 µM; in the test with T-47D breast it was 46.9 µM; with CCRF-CEM leukemia, 14.1 µM; in the test on UACC-257 melanoma, 31.5 µM; in the test on HOP-92 NSCLC it was 27.7 µM. This compound also gave a TGI with UACC-62 melanoma of 29.3 µM.
`COC(=O)[C@H](Cc1ccccc1)NC(=O)N(CCN(CCC#N)C(=O)N[C@H](C(=O)OC)C(C)C)c1ccccc1`: the TGI in the test with TK-10 renal, in the test on IGROV1 ovarian, in the test with HCC-2998 colon, with T-47D breast, with SK-MEL-2 melanoma and in the test with CCRF-CEM leukemia was > 100 µM throughout. Further, the values for the TGI in the test with UACC-257 melanoma, with HOP-92 NSCLC and in the test with UACC-62 melanoma were > 100 µM, 80.5 µM and > 100 µM, respectively.
As for `COc1ccc(-c2nc(-c3nc4cc(Cl)c(Cl)cc4[nH]3)c3ccccn23)cc1`, the GI50 was 3.73 µM in the test with IGROV1 ovarian; > 100 µM in the test with HCC-2998 colon; 4.06 µM in the test on T-47D breast; > 100 µM with HL-60(TB) leukemia; > 100 µM with CCRF-CEM leukemia; 5.77 µM with UACC-257 melanoma. Moreover, the GI50 in the test with HOP-92 NSCLC is 1.82 µM; with UACC-62 melanoma it was 5.59 µM. Besides, the TGI in the test on IGROV1 ovarian, with HCC-2998 colon, in the test on T-47D breast, with HL-60(TB) leukemia, with CCRF-CEM leukemia and in the test on UACC-257 melanoma was > 100 µM in each case. Also, the TGI in the test with HOP-92 NSCLC is 5.1 µM; in the test with UACC-62 melanoma, > 100 µM.
